Data taken from patent US9533071B2, “Wound healing compositions including cyanoacrylate monomers and phenytoin” (Adhezion Biomedical, LLC, priority 2010, dated 2017).

Tests used:
[1] = test system: surgical wounds of periodontal patients; conditions: topical; cited from earlier work
[2] = Incorporation (miscibility) of phenytoin into cyanoacrylate monomers; format: physicochemical
Description: According to the present invention, an effective amount of wound healing promoter, is incorporated into the pre-stabilized liquid monomeric cyanoacrylate adhesive compositions to form a homogeneous liquid adhesive product. […] After continuous stirring at this elevated temperature, the mixture of cyanaocrylate monomers and wound healing accelerator becomes a homogeneous solution within about 1 to 2 hours. Standard mixing equipment and techniques are suitable. The 5,5-[…], including phenytoin are readily available from major chemical distributors. […] Table 1 below summarizes the results of incorporating phenytoin into different cyanoacrylate monomer solutions at the elevated temperatures. […] At the elevated temperatures, phenytoin is soluble in both 2-octyl cyanoacrylate (OCA) and n-butyl cyanoacrylate (BCA). It is also interesting to note that phenytoin is more soluble in shorter alkyl chain cyanoacrylate (BCA) than in longer alkyl chain cyanoacrylate (OCA).

bacterial load of wounds = conditions: clinical studies; cited from earlier work

Solubility in 2-octyl cyanoacrylate (OCA) ([2]; elevated temperatures): soluble
Solubility in n-butyl cyanoacrylate (BCA) ([2]; elevated temperatures): soluble
Solubility in 2-octyl cyanoacrylate (OCA) monomer ([2]; room temperature): not soluble
Solubility in BCA compared with OCA ([2]; shorter vs longer alkyl chain cyanoacrylate): more soluble
Compound: O=C1NC(=O)C(c2ccccc2)(c2ccccc2)N1 [phenytoin, 5,5-diphenylhydantoin]
Inflammation and pain [1]: reduced inflammation and pain
Wound healing [1]: accelerated wound healing
Bacterial load of wounds (bacterial load of wounds): decrease the bacterial load of wounds
